Laboratory results taken from patent US9714240B2 (PharmAkea, Inc., priority 2013, dated 2017).

Molecular target: T1, human autotaxin (Homo sapiens, UniProt Q13822)
T1 construct: Conditioned media is collected from confluent Hep3B cells and concentrated 20-fold; endogenous in cells; host or cells: Hep3B human hepatocellular carcinoma cells (concentrated conditioned medium)
Assay: Human Autotaxin Assay (choline release from LPC)
Assay type: biochemical
Conditions: ATX in concentrated conditioned media from Hep3B cells, substrate LPC 14:0 100 uM, absorbance at 555 nm
Protocol: ATX activity is assayed in concentrated conditioned media from Hep3B human hepatocellular carcinoma cells by measuring the amount of choline released from the substrate, lysophosphatidylcholine (LPC) as it is cleaved to LPA. Conditioned media is collected from confluent Hep3B cells and concentrated 20-fold using Centriprep-30 filter devices (Millipore). To assay for autotaxin inhibition, 10-20 μL of the concentrated conditioned media is incubated with 2.5 μL of a test compound in DMSO and 72.5-82.5 μL lyso-PLD buffer (100 mM Tris pH 9, 500 mM NaCl, 5 mM MgCl2, 5 mM CaCl2, 0.05% Triton X-100 in the presence or absence of 0.2% fatty-acid-free human serum albumin) for 15 min at 37° C. After the 15 min incubation, 5 ul of 2 mM LPC (14:0; Avanti Polar Lipids Cat#855575C) diluted in lyso-PLD buffer is added for a final concentration of 100 uM and the incubation continues for 1.5-3 hours at 37° C. 100 μl of a color mix containing 4.5 mM 4-aminoantipyrine, 2.7 mM N-ethyl-N-(2-hydroxy-3-sulfopropyl)-m-toluidine, 21 units/ml horseradish peroxidase and 3 units/ml choline oxidase in 50 mM Tris, pH 8, 4.5 mM MgCl2 is added and the incubation continued for 15 minutes at room temperature before reading the absorbance at 555 nm.

Structure (SMILES)	IC50 [nM]
N#C/C(=C\c1cn(Cc2ccc(F)cc2)c2ccccc12)c1ccc(C(=O)O)cc1 [Compound 1-1, 4-[(Z)-1-cyano-2-[1-[(4-fluorophenyl)methyl]indol-3-yl]vinyl]benzoic Acid]	500 to 10000
N#C/C(=C\c1cn(Cc2ccc(F)cc2)c2cccc(Cl)c12)c1ccc(C(=O)O)cc1 [Compound 1-2, 4-[(Z)-1-cyano-2-[4-chloro-1-[(4-fluorophenyl)methyl]indol-3-yl]vinyl]benzoic Acid]	500 to 10000
N#C/C(=C\c1cn(Cc2ccc(F)cc2)c2ccc(Cl)cc12)c1ccc(C(=O)O)cc1 [Compound 1-3, 4-[(Z)-2-[5-chloro-1-[(4-fluorophenyl)methyl]indol-3-yl]-1-cyano-vinyl]benzoic Acid]	> 10000
N#C/C(=C\c1cn(Cc2ccc(F)cc2)c2cc(Cl)ccc12)c1ccc(C(=O)O)cc1 [Compound 1-4, (Z)-4-(2-(6-chloro-1-(4-fluorobenzyl)-1H-indol-3-yl)-1-cyanovinyl)benzoic Acid]	≤ 500
N#C/C(=C\c1cn(Cc2ccc(F)cc2)c2c(Cl)cccc12)c1ccc(C(=O)O)cc1 [Compound 1-5, 4-[(Z)-2-[7-chloro-1-[(4-fluorophenyl)methyl]indol-3-yl]-1-cyano-vinyl]benzoic Acid]	500 to 10000
N#C/C(=C\c1cn(Cc2ccc(F)cc2)c2ccc(F)cc12)c1ccc(C(=O)O)cc1 [Compound 1-6, 4-[(Z)-1-cyano-2-[5-fluoro-1-[(4-fluorophenyl)methyl]indol-3-yl]vinyl]benzoic Acid]	500 to 10000
N#C/C(=C\c1cn(Cc2ccc(F)cc2)c2cc(F)ccc12)c1ccc(C(=O)O)cc1 [Compound 1-7, 4-[(Z)-1-cyano-2-[6-fluoro-1-[(4-fluorophenyl)methyl]indol-3-yl]vinyl]benzoic Acid]	≤ 500
N#C/C(=C\c1cn(Cc2ccc(F)cc2)c2cc(Br)ccc12)c1ccc(C(=O)O)cc1 [Compound 1-8, 4-[(Z)-2-[6-bromo-1-[(4-fluorophenyl)methyl]indol-3-yl]-1-cyano-vinyl]benzoic Acid]	500 to 10000
N#C/C(=C\c1cn(Cc2ccc(F)cc2)c2cc(C(F)(F)F)ccc12)c1ccc(C(=O)O)cc1 [Compound 1-9, 4-[(Z)-1-cyano-2-[1-[(4-fluorophenyl)methyl]-6-(trifluoromethyl)indol-3-yl]vinyl]benzoic Acid]	500 to 10000
COc1ccc2c(/C=C(\C#N)c3ccc(C(=O)O)cc3)cn(Cc3ccc(F)cc3)c2c1 [Compound 1-10, 4-[(Z)-1-cyano-2-[1-[(4-fluorophenyl)methyl]-6-methoxy-indol-3-yl]vinyl]benzoic Acid]	≤ 500

More lines, now with the values ahead:

IC50 [nM]	Structure (SMILES)
≤ 500	N#C/C(=C\c1cn(Cc2ccc(F)cc2)c2cc(F)cc(F)c12)c1ccc(C(=O)O)cc1 [Compound 1-11, 4-[(Z)-1-cyano-2-[4,6-difluoro-1-[(4-fluorophenyl)methyl]indol-3-yl]vinyl]benzoic Acid]
> 10000	CCCn1cc(-n2cc(/C=C(\C#N)c3ccc(C(=O)O)cc3)c3ccc(Cl)cc32)cn1 [Compound 1-12, 4-[(Z)-2-[6-chloro-1-(1-propylpyrazol-4-yl)indol-3-yl]-1-cyano-vinyl]benzoic Acid]
500 to 10000	N#C/C(=C\c1cn(Cc2ccccc2)c2cc(Cl)ccc12)c1ccc(C(=O)O)cc1 [Compound 1-13, 4-[(Z)-2-(1-benzyl-6-chloro-indol-3-yl)-1-cyano-vinyl]benzoic Acid]
500 to 10000	N#C/C(=C\c1cn(Cc2ccncc2)c2cc(Cl)ccc12)c1ccc(C(=O)O)cc1 [Compound 1-14, 4-[(Z)-2-[6-chloro-1-(4-pyridylmethyl)indol-3-yl]-1-cyano-vinyl]benzoic Acid]
≤ 500	N#C/C(=C\c1cn(Cc2cnc(C(F)(F)F)s2)c2cc(Cl)ccc12)c1ccc(C(=O)O)cc1 [Compound 1-15, 4-[(Z)-2-[6-chloro-1-[[2-(trifluoromethyl)thiazol-5-yl]methyl]indol-3-yl]-1-cyano-vinyl]benzoic Acid]
